Measurements taken from ChEMBL document CHEMBL6121046, “Discovery of Novel Hydrazide-Based HDAC3 Inhibitors as Epigenetic Immunomodulators for Cancer Immunotherapy” (J Med Chem, 2025).
Activity calls are given as the source filed them. No cut-off for these calls is given here.

Assays:
[1] = Antiproliferative activity against […] cells measured after 48 hrs incubation by MTT assay relative to control; type: functional, cell-based; conditions: Mus musculus, Lung cancer cell line
MC-38 [2] = experiment: Antiproliferative activity against mouse MC38 cells measured after 48 hrs incubation by MTT assay relative to control; type: functional, cell-based; conditions: MC-38, 48 h
Histone deacetylase 7 = molecular target: T1, Histone deacetylase 7 (Homo sapiens, UniProt Q8WUI4); experiment: Inhibition of human recombinant HDAC7 pre-incubated with compounds for 10 mins measured followed by 60 mins of substrate addition
T1 sequence (Q8WUI4 whole entry): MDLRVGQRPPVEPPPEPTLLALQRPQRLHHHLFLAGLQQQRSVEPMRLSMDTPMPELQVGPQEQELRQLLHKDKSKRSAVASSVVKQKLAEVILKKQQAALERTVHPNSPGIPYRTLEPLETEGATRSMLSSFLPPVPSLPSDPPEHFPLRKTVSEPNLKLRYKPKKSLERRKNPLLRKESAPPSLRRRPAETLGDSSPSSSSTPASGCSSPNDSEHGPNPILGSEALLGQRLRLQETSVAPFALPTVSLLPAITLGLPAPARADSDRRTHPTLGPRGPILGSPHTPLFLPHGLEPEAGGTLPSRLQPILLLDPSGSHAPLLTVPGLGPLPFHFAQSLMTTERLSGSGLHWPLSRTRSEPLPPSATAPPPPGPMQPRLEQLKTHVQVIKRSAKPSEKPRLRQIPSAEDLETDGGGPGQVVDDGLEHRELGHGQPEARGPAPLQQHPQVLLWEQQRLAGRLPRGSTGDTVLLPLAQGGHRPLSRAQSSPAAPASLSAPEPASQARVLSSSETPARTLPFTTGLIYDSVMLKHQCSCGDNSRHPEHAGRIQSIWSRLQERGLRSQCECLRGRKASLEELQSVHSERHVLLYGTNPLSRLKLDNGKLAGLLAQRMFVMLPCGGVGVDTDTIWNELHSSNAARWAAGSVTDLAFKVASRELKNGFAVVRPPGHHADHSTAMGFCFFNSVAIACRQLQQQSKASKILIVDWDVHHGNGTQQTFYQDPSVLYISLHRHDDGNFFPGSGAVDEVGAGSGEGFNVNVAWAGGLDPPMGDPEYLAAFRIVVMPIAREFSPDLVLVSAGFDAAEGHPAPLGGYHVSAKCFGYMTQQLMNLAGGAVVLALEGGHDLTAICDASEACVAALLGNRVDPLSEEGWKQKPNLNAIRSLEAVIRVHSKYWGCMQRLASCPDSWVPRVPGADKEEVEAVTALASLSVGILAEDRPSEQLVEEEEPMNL

Histone deacetylase 3 = Histone deacetylase 3 (Homo sapiens, UniProt O15379); experiment: Inhibition of human recombinant HDAC3 pre-incubated with compounds for 10 mins measured followed by 60 mins of substrate addition
Chain of Histone deacetylase 3 (O15379 whole entry): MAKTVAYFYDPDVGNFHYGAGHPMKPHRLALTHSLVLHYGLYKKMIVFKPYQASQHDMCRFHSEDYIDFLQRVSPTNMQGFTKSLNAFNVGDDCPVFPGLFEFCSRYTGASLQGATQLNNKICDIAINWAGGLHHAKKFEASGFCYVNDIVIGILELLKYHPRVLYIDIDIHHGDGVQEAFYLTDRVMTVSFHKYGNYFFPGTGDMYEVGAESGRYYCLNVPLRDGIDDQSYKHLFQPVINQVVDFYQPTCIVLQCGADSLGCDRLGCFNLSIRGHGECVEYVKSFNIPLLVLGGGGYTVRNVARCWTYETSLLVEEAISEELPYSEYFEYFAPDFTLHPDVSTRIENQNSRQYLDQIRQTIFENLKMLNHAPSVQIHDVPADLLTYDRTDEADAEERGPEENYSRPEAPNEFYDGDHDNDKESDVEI

Histone deacetylase 1 = Histone deacetylase 1 (Homo sapiens, UniProt Q13547); experiment: Inhibition of human recombinant HDAC1 pre-incubated with compounds for 10 mins measured followed by 60 mins of substrate addition
Chain of Histone deacetylase 1 (Q13547 whole entry): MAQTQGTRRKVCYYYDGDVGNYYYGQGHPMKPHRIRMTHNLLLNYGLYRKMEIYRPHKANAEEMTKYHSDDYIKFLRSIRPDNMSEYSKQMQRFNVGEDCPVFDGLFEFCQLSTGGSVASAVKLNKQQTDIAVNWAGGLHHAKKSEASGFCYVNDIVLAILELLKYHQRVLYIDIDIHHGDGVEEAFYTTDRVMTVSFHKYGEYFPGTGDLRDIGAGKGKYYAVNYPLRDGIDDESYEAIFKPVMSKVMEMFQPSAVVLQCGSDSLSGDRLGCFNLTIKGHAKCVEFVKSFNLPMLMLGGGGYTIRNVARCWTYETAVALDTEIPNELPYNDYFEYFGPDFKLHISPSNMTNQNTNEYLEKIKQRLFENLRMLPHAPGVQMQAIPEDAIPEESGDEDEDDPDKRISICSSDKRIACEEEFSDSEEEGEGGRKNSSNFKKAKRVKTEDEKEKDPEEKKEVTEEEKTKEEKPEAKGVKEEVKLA

[3] = molecular target: T2, Protein deacetylase HDAC6 (Homo sapiens, UniProt Q9UBN7); experiment: Inhibition of human recombinant HDAC6 pre-incubated with compounds for 10 mins measured followed by 60 mins of substrate addition
T2 sequence (Q9UBN7 whole entry): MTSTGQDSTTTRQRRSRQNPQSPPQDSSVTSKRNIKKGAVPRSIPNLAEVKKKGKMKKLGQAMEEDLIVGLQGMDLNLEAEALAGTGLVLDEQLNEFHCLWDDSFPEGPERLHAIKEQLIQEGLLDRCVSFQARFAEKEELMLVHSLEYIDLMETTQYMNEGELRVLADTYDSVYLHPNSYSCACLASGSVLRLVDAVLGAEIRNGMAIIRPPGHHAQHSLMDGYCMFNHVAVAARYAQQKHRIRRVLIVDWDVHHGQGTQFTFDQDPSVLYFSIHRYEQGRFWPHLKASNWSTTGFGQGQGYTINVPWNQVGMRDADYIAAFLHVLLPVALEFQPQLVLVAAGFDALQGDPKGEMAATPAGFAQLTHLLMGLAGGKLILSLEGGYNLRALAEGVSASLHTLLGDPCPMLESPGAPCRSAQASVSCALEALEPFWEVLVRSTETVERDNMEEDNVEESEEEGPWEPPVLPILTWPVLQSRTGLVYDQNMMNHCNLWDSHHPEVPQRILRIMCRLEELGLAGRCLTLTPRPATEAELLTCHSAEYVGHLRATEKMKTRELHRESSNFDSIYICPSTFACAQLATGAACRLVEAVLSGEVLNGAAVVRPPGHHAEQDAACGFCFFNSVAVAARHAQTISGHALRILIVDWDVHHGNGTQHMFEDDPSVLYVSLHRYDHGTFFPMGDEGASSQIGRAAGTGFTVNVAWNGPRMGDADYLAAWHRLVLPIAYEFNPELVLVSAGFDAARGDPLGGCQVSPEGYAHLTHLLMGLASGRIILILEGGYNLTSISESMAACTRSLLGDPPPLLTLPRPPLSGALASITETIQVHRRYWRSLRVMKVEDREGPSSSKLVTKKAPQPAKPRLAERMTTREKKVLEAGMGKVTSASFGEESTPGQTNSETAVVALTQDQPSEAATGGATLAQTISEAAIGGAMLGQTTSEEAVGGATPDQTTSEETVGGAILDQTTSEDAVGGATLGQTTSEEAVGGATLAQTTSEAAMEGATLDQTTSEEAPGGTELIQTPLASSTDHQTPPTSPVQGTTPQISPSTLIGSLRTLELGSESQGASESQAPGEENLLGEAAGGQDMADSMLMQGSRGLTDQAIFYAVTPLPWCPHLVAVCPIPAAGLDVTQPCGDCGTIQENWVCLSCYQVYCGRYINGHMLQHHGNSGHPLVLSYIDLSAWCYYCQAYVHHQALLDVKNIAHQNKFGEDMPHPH

HCT-116 = experiment: Antiproliferative activity against human HCT-116 cells measured after 48 hrs incubation by MTT assay relative to control; type: functional, cell-based; conditions: HCT-116, 48 h
B16-F10 = experiment: Antiproliferative activity against mouse B16-F10 cells at 1 uM measured after 48 hrs incubation by MTT assay relative to control
B16-F10 (Mus musculus) = experiment: Antiproliferative activity against mouse B16-F10 cells measured after 48 hrs incubation by MTT assay relative to control; conditions: B16-F10, 48 h
Histone deacetylase 8 = molecular target: T3, Histone deacetylase 8 (Homo sapiens, UniProt Q9BY41); experiment: Inhibition of human recombinant HDAC8 pre-incubated with compounds for 10 mins measured followed by 60 mins of substrate addition
T3 sequence (Q9BY41 whole entry): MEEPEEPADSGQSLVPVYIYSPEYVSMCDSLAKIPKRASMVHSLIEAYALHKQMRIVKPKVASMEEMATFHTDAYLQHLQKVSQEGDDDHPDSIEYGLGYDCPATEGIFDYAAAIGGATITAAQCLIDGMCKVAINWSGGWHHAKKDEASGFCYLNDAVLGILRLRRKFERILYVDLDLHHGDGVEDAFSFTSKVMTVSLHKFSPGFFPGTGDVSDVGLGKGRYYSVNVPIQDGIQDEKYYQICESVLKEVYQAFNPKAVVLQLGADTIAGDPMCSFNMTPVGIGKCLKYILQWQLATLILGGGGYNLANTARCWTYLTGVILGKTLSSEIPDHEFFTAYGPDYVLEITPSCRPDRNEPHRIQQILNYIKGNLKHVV

MCF7 = experiment: Antiproliferative activity against human MCF7 cells measured after 48 hrs incubation by MTT assay relative to control; type: functional, cell-based; conditions: MCF7, 48 h
HepG2 = experiment: Antiproliferative activity against human HepG2 cells measured after 48 hrs incubation by MTT assay relative to control; type: functional, cell-based; conditions: HepG2, 48 h
HeLa = experiment: Antiproliferative activity against human HeLa cells measured after 48 hrs incubation by MTT assay relative to control; type: functional, cell-based
MC-38 [4] = experiment: Effect on acetylated SMC3 in mouse MC38 cells at 0.1 to 2 uM measured after 24 hrs incubation by Western blot analysis; type: functional, cell-based; conditions: dose 0.1-2 µM
MC-38 [5] = experiment: Effect on acetylated alpha-tubulin in mouse MC38 cells at 0.1 to 2 uM measured after 24 hrs incubation by Western blot analysis; type: functional, cell-based; conditions: dose 0.1-2 µM
MC-38 [6] = experiment: Increase in acetylated H3 in mouse MC38 cells at 0.1 to 2 uM measured after 24 hrs incubation by Western blot analysis; type: functional, cell-based; conditions: dose 0.1-2 µM

| IC50 (Histone deacetylase 7) [nM] | IC50 (Histone deacetylase 3) [nM] | IC50 (Histone deacetylase 1) [nM] | IC50 [3] [nM] | IC50 (HCT-116) [nM] | IC50 (B16-F10 (Mus musculus)) [nM] | IC50 (Histone deacetylase 8) [nM] | IC50 (MCF7) [nM] | IC50 (HepG2) [nM] | IC50 (HeLa) [nM] | SMILES | IC50 [1] [nM] | IC50 (MC-38 [2]) [nM] | Activity (B16-F10) [%] | Activity (MC-38 [4]) | Activity (MC-38 [5]) | Activity (MC-38 [6]) |
| --- | --- | --- | --- | --- | --- | --- | --- | --- | --- | --- | --- | --- | --- | --- | --- | --- |
| > 10000 | 66 | 2060 | 8910 | 160 | 3060 | > 10000 | 2290 | 500 | 1970 | CCCNNC(=O)c1ccc(CNC(=O)c2cnc(-c3ccccc3)[nH]2)cc1 | 2190 | 5300 | 49.33 |  |  |  |
| > 10000 | 290 | 3910 | > 10000 |  |  | > 10000 |  |  |  | CCCNNC(=O)c1ccc(CNC(=O)c2cnc(-c3ccc4c(c3)OCCO4)[nH]2)cc1 |  |  | 23.11 |  |  |  |
| > 10000 | 100 | 4450 | > 10000 |  |  | > 10000 |  |  |  | COc1ccc(-c2ncc(C(=O)NCc3ccc(C(=O)Nc4ccccc4N)cc3)[nH]2)cc1 |  |  | 28.07 |  |  |  |
| > 10000 | 170 | 3240 | > 10000 |  |  | > 10000 |  |  |  | CCCNNC(=O)c1ccc(CNC(=O)c2cnc(-c3ccnc4ccccc34)[nH]2)cc1 |  |  | 13.07 |  |  |  |
|  |  |  |  | 310 | 1770 |  | 1760 | 670 | 3770 | CCCNNC(=O)c1ccc(CNC(=O)c2ncc(CNc3ccccc3)s2)cc1 | 250 | 2350 | 57.29 |  |  |  |
| > 10000 | 74 | 1740 | > 10000 | 220 | 1970 | > 10000 | 2110 | 690 | 1670 | CCCNNC(=O)c1ccc(CNC(=O)c2cnc(-c3ccc4ccccc4c3)[nH]2)cc1 | 1370 | 3470 | 52.99 |  |  |  |
| > 10000 | 120 | 1410 | > 10000 |  |  | > 10000 |  |  |  | Nc1ccccc1NC(=O)c1ccc(CNC(=O)c2cnc(-c3ccccc3)[nH]2)cc1 |  |  | 15.84 |  |  |  |
| > 10000 | 91 | 4180 | > 10000 |  |  | > 10000 |  |  |  | Nc1ccccc1NC(=O)c1ccc(CNC(=O)c2cnc(-c3ccc4occc4c3)[nH]2)cc1 |  |  | 31.86 |  |  |  |
| > 10000 | 88 | 2360 | > 10000 |  |  | > 10000 |  |  |  | CCCNNC(=O)c1ccc(CNC(=O)c2cnc(-c3ccc(OC)cc3)[nH]2)cc1 |  |  | 33.01 |  |  |  |
|  | 31 |  |  |  |  |  |  |  |  | COc1ccc(-c2ncc(C(=O)NCCCCCCC(=O)NO)s2)c(OC)c1 |  |  |  |  |  |  |
|  |  |  |  |  | 9360 |  | 8990 | 4080 | > 10000 | Nc1ccccc1NC(=O)c1ccc(CNC(=O)OCc2cccnc2)cc1 [ENTINOSTAT] | 2870 | > 10000 | 16.1 | inactive | inactive | Active |
|  |  |  |  |  |  |  |  |  |  | Nc1ccccc1NC(=O)c1ccc(CNC(=O)c2cnc(-c3ccc(F)cc3)[nH]2)cc1 |  |  | 9.98 |  |  |  |
| > 10000 | 330 | 3660 | > 10000 |  |  | > 10000 |  |  |  | Nc1ccccc1NC(=O)c1ccc(CNC(=O)c2cnc(-c3ccc4c(c3)OCCO4)[nH]2)cc1 |  |  | 13.1 |  |  |  |
| > 10000 | 130 | 960 | 9020 |  |  | > 10000 |  |  |  | CCCNNC(=O)c1ccc(CNC(=O)c2cnc(-c3ccc(F)cc3)[nH]2)cc1 |  |  | 37.64 |  |  |  |
| > 10000 | 100 | 4620 | > 10000 |  |  | > 10000 |  |  |  | Nc1ccccc1NC(=O)c1ccc(CNC(=O)c2cnc(-c3ccc4ccccc4c3)[nH]2)cc1 |  |  | 28.15 |  |  |  |
|  |  |  |  |  |  |  |  |  |  | CCCNNC(=O)c1ccc(CNC(=O)c2cnc(-c3ccc4[nH]ccc4c3)[nH]2)cc1 |  |  | 2.77 |  |  |  |
| > 10000 | 96 | 2430 | 9430 |  |  | > 10000 |  |  |  | Nc1ccccc1NC(=O)c1ccc(CNC(=O)c2cnc(-c3cccc4ccccc34)[nH]2)cc1 |  |  | 39.28 |  |  |  |
